Experimental data taken from the NIST ThermoML archive (doi:10.1021/je900733j).

Key:
[1] = xn = mol fraction of the nth substance listed; conditions: 101 kPa, Liquid
[2] = 101 kPa, Liquid

CCCCn1cc[n+](C)c1.[Cl-] [1-butyl-3-methylimidazolium chloride] + CN(C)C=O
mass density [kg/m3], [1]
Conditions | x1 = 0.0332 | x1 = 0.0835 | x1 = 0.1303 | x1 = 0.1822 | x1 = 0.2289 | x1 = 0.3069 | x1 = 0.3879 | x1 = 0.4488
293.15 K | 961.92 | 978 | 990.54 | 1002.71 | 1012.04 | 1025.51 | 1037.1 | 1044.53
298.15 K | 957.33 | 973.63 | 986.33 | 998.67 | 1008.12 | 1021.78 | 1033.54 | 1041.06
303.15 K | 952.73 | 969.25 | 982.13 | 994.62 | 1004.21 | 1018.05 | 1029.98 | 1037.61
308.15 K | 948.12 | 964.87 | 977.91 | 990.58 | 1000.3 | 1014.34 | 1026.42 | 1034.18
313.15 K | 943.52 | 960.48 | 973.71 | 986.54 | 996.4 | 1010.63 | 1022.89 | 1030.77
318.15 K | 938.89 | 956.09 | 969.5 | 982.51 | 992.5 | 1006.94 | 1019.36 | 1027.36

CN(C)C=O [dimethylformamide] + CCCCn1cc[n+](C)c1.[Cl-]
[1], x2 = 0
Conditions | mass density [kg/m3]
293.15 K | 948.63
298.15 K | 943.86
303.15 K | 939.08
308.15 K | 934.29
313.15 K | 929.48
318.15 K | 924.68

CN(C)C=O [dimethylformamide]
[2]
Conditions | mass density [kg/m3]
293.15 K | 948.63
298.15 K | 943.86
303.15 K | 939.08
308.15 K | 934.29
313.15 K | 929.48
318.15 K | 924.68

CO [methanol]
[2]
Conditions | mass density [kg/m3]
293.15 K | 791.3
298.15 K | 786.58
303.15 K | 781.86
308.15 K | 777.11
313.15 K | 772.33
318.15 K | 767.52

CC#N [acetonitrile] + CCCCn1cc[n+](C)c1.[Cl-]
[1], x2 = 0
Conditions | mass density [kg/m3]
293.15 K | 782.04
298.15 K | 776.64
303.15 K | 771.21
308.15 K | 765.75
313.15 K | 760.25
318.15 K | 754.73

CCCCn1cc[n+](C)c1.[Cl-] [1-butyl-3-methylimidazolium chloride] + CO
mass density [kg/m3], [1]
Conditions | x1 = 0.0101 | x1 = 0.0506 | x1 = 0.1 | x1 = 0.1665 | x1 = 0.1951 | x1 = 0.2398 | x1 = 0.2991 | x1 = 0.3771 | x1 = 0.482
293.15 K | 805.87 | 852.64 | 894.1 | 935.48 | 949.82 | 968.61 | 989.02 | 1010.45 | 1031.45
298.15 K | 801.3 | 848.46 | 890.18 | 931.83 | 946.25 | 965.16 | 985.68 | 1007.23 | 1028.33
303.15 K | 796.71 | 844.24 | 886.26 | 928.17 | 942.69 | 961.71 | 982.33 | 1004.01 | 1025.22
308.15 K | 792.11 | 840.01 | 882.35 | 924.53 | 939.14 | 958.26 | 979.01 | 1000.8 | 1022.12
313.15 K | 787.49 | 835.76 | 878.44 | 920.9 | 935.6 | 954.83 | 975.69 | 997.6 | 1019.03
318.15 K | 782.83 | 831.56 | 874.52 | 917.27 | 932.06 | 951.4 | 972.38 | 994.41 | 1015.96

CCCCn1cc[n+](C)c1.[Cl-] [1-butyl-3-methylimidazolium chloride] + O
mass density [kg/m3], [1]
Conditions | x1 = 0.0121 | x1 = 0.0381 | x1 = 0.0819 | x1 = 0.1109 | x1 = 0.1399 | x1 = 0.2489 | x1 = 0.2977 | x1 = 0.4083
293.15 K | 1007.06 | 1024.73 | 1046.21 | 1055.73 | 1062.54 | 1076.98 | 1080.14 | 1084.32
298.15 K | 1005.53 | 1022.46 | 1043.25 | 1052.62 | 1059.39 | 1073.95 | 1077.15 | 1081.43
303.15 K | 1003.8 | 1020.07 | 1040.24 | 1049.46 | 1056.2 | 1070.89 | 1074.16 | 1078.53
308.15 K | 1001.89 | 1017.57 | 1037.17 | 1046.28 | 1052.99 | 1067.82 | 1071.15 | 1075.63
313.15 K | 999.81 | 1014.95 | 1034.06 | 1043.06 | 1049.76 | 1064.72 | 1068.14 | 1072.73
318.15 K | 997.57 | 1012.24 | 1030.89 | 1039.81 | 1046.48 | 1061.63 | 1065.09 | 1069.82

CCCCn1cc[n+](C)c1.[Cl-] [1-butyl-3-methylimidazolium chloride] + CC#N
mass density [kg/m3], [1]
Conditions | x1 = 0.0303 | x1 = 0.0797 | x1 = 0.1308 | x1 = 0.1806 | x1 = 0.235 | x1 = 0.2914 | x1 = 0.3717 | x1 = 0.439
293.15 K | 815.47 | 859.07 | 894.46 | 922.76 | 948.31 | 970.09 | 995.09 | 1012.49
298.15 K | 810.4 | 854.38 | 890.07 | 918.62 | 944.36 | 966.32 | 991.52 | 1009.08
303.15 K | 805.29 | 849.67 | 885.68 | 914.46 | 940.39 | 962.55 | 987.95 | 1005.66
308.15 K | 800.18 | 844.95 | 881.27 | 910.3 | 936.47 | 958.78 | 984.38 | 1002.25
313.15 K | 795.05 | 840.21 | 876.86 | 906.14 | 932.51 | 955.02 | 980.83 | 998.86
318.15 K | 789.88 | 835.48 | 872.45 | 901.98 | 928.57 | 951.26 | 977.28 | 995.46

CC#N [acetonitrile]
[2]
Conditions | mass density [kg/m3]
293.15 K | 782.04
298.15 K | 776.64
303.15 K | 771.21
308.15 K | 765.75
313.15 K | 760.25
318.15 K | 754.73

CO [methanol] + CCCCn1cc[n+](C)c1.[Cl-]
[1], x2 = 0
Conditions | mass density [kg/m3]
293.15 K | 791.3
298.15 K | 786.58
303.15 K | 781.86
308.15 K | 777.11
313.15 K | 772.33
318.15 K | 767.52
